Measured values taken from patent publication US11278561B2, “Combination treatment for hematological cancers” (Geron Corporation, priority 2016, dated 2022).

Columns and labels:
[1] = tested on: telomerase; experiment: telomerase activity by qPCR TRAP in MOLM-13 lysates; format: cell-based, human; details: 50 μM imetelstat sodium or 20 nM ABT-199
Experimental: Samples from the previous section for protein analysis were collected as cell pellets by centrifugation at 5 minutes for 1500K for lyses and protein extraction. Protein lysates were analyzed by utilizing a modified method combined from two primary sources (Hou, et al. (2001) 43(3) 519-524 and Nature Protocols (2006) 1 (3) 1583-1590). Lysates were generated by adding 80 μL of a 10 mM Tris-EDTA, 1% NP-40, 10% Glycerol, 150 mM NaCl, 1 mM MgCl2, 250 μM Sodium Deoxycholate, 100 μM AEBSF, 5 mM 2-mercaptoethanol buffer and incubating on ice for 30 minutes. Lysates were centrifuged for 15 minutes at max speed and at 4° C. to pellet cellular debris. Protein yield from clarified lysates were quantified using a BCA assay (ThermoFisher catalog 23252) and subjected to a qPCR TRAP-based assay to determine relative telomerase activity (Power SYBR Green PCR Master Mix—ThermoFisher #4367659) using a ViiA7 Real-Time PCR system from ThermoFisher. In this assay, protein lysates are exposed to synthetic oligonucleotides mimicking telomere sequences in the presence of excess dNTPs and SYBR green dye. The greater the activity of telomerase, the greater extension of the synthetic primers, and therefore greater staining of nucleic acid and signal generated by the SYBR dye. This signal is compared to a standard curve of control protein lysate to determine the relative telomerase activity between samples.

[2] = tested on: MOLM-13 AML disseminated model; experiment: MOLM-13 AML disseminated mouse model, survival; format: in vivo; details: MOLM-13 implanted SCID-beige mice; imetelstat sodium or MM 30 mg/kg ip TIW x 4 weeks, ABT-199 100 mg/kg po qd x 4 weeks
Experimental: An in vivo study in the MOLM-13 AML disseminated mouse model was conducted to assess efficacy and survival. Specifically, on day 0 of the study, MOLM-13 AML tumor cells were implanted into mice. […] The percent survival of the mice was assessed as a function of time (days post tumor cell implantation). The study lasted for a total of 108 days (77 days after stopping treatment).
Fifty female SCID-beige mice (6-week-old, Jackson Laboratory) were intravenously injected with 1 million MOLM-13 cells and randomly divided into five groups.
Mice were observed daily and body weights were measured twice a week. The survival of mice in each group was followed. The study was terminated on day 108, which was 77 days post last treatment. The increased life span (“ILS”) was evaluated for each group, and the % ILS versus the vehicle control was calculated as: % ILS=100×(T−C)/C where T is the median survival of the treatment group and C is the median survival of the control group.

CC1(C)CCC(CN2CCN(c3ccc(C(=O)NS(=O)(=O)c4ccc(NCC5CCOCC5)c([N+](=O)[O-])c4)c(Oc4cnc5[nH]ccc5c4)c3)CC2)=C(c2ccc(Cl)cc2)C1 [ABT-199, 4-[4-[[2-(4-chlorophenyl)-4,4-dimethylcyclohexen-1-yl]methyl]piperazin-1-yl]-N-[3-nitro-4-(oxan-4-ylmethylamino)phenyl]sulfonyl-2-(1H-pyrrolo [2,3-b]pyridin-5-yloxy)benzamide]
telomerase activity as compared to control ([1]; MOLM-13, 48 hours): no effect
telomerase activity as compared to control ([1]; MOLM-13, 96 hours): ~70%
% ILS (increased life span as compared to vehicle control) [2]: 36.3%
Median Survival [2]: 30 days
